This note sets out measurements from US6569847B1, “Substituted azetidin-2-ones as cysteine protease inhibitors” (NAEJA Pharmaceuticals Inc., priority 1999, dated 2003).

Data set [1] has as its target Cathepsin B (Homo sapiens, UniProt P07858). Nature of the data set: Assay Procedure for Cathepsin B (fluorogenic substrate N-CBZ-Phe-Arg-AMC). Type of data set: biochemical. The note with it: r Cathepsin B, pH 5.1, 10 min preincubation; read-out: CatB IC50. The method, then:
Assay Procedure for Cathepsin B
To 170 μl of enzyme-buffer mixture (r Cathepsin B diluted to give approx. 30 F units/min, buffer: 56 mM Na acetate, 1.124 mM EDTA, 10 mM DTT, pH 5.1), 10 μl of inhibitor (dissolved in 100% DMSO ) was added.
After 10 min of incubation at mom temperature 20 μl of 5 mM substrate (N-CBZ-Phe-Arg-AMC, dissolved in DMSO ) was added to initiate reaction. Reading is followed for 10 min at the Fluoroscan reader (excitation at 380 nm, emission at 460 nm).
(§1) A plot of percentage of inhibition vs inhibitor concentration is obtained, and the IC50 is determined using a linear regression calculation (concentration of inhibitor which will give 50% inhibition).

For data set [2], the target named is Cathepsin L (Homo sapiens, UniProt P07711). Nature of the data set: Assay Procedure for Cathepsin L (fluorogenic substrate N-CBZ-Phe-Arg-AMC). Type of data set: biochemical. The note with it: r Cathepsin L, pH 5.0, 10 min preincubation; read-out: CatL IC50. How it is done:
Assay Procedure for Cathepsin L
To 170 μl of an enzyme-buffer mixture (enzyme: r Cathepsin L, diluted to give 25 F units/min, buffer: 58.8 mM Na citrate, 1.18 mM EDTA, 235 mM sodium chloride, 10 mM DTT, pH 5.0), 10 μl of an inhibitor (dissolved in 100% DMSO ) was added.
After 10 min of incubation at room temperature 20 μl of 1 mM substrate (N-CBZ-Phe-Arg-AMC) dissolved in DMSO was added to initiate the reaction. Reading was for 10 min at the Fluoroscan reader (excitation at 380 nm, emission at 460 nm).
as §1

Data set [3] addresses T1, Cathepsin K (Homo sapiens, UniProt P43235).
T1 sequence (P43235 115-329): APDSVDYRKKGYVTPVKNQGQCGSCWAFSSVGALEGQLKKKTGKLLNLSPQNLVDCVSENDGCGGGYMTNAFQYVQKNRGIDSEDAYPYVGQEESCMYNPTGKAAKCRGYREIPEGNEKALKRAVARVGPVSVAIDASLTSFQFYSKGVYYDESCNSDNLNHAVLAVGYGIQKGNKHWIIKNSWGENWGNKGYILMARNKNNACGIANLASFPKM
Nature of the data set: Assay Procedure for Cathepsin K (fluorogenic substrate N-CBZ-Phe-Arg-AMC). Format: biochemical. The settings on record: r Cathepsin K, pH 5.5, 10 min preincubation; read-out: CatK IC50. How it is done:
Assay Procedure for Cathepsin K
To 170 μl of enzyme-buffer mixture (r Cathepsin K diluted to give approx. 30 F units/min. Buffer: 100 mM sodium acetate, 5 mM EDTA, 20 mM L-Cysteine, 0.01% Brij , pH 5.5), 10 μl of inhibitor (dissolved in 100% DMSO) was added.
After 10 min of incubation at room temperature 20 μl of 2.7 mM substrate (N-CBZ-Phe-Arg-AMC, dissolved in DMSO) was added to initiate reaction. Reading is followed for 10 min at the Fluoroscan II plate reader (excitation at 380 nm, emission at 460 nm).
as §1

The target of data set [4] is Cathepsin S (Homo sapiens, UniProt P25774). Put plainly: Assay Procedure for Cathepsin S (fluorogenic substrate CBZ-Val-Val-Arg-AMC). The settings on record: r Cathepsin S, pH 6.5, 10 min preincubation; read-out: CatS IC50. Format: biochemical. The method, then:
Assay Procedure for Cathepsin S
To 170 μl of enzyme-buffer mixture (r Cathepsin S diluted to give approx. 30 F unis/min, buffer: 100 mM sodium phosphate, 1 mM EDTA, 5 mM DTT ,0.01% Brij, pH 6.5.), 10 μl of inhibitor (dissolved in 100% DMSO) was added.
After 10 min of incubation at room temperature 20 μl of 1.2 mM substrate (CBZ-Val-Val-Arg-AMC, dissolved in DMSO) was added to initiate reaction. Reading is followed for 10 min at the Fluoroscan II plate reader (excitation at 380 nm, emission at 460 nm).
as §1

Sequence of Cathepsin L (P07711 114-333, species assumed): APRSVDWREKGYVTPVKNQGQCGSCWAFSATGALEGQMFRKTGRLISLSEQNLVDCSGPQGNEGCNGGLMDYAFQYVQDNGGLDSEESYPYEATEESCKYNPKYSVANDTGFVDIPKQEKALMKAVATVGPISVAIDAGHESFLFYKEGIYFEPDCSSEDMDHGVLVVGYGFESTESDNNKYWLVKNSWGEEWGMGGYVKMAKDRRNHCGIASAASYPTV
Sequence of Cathepsin S (P25774 115-331, species assumed): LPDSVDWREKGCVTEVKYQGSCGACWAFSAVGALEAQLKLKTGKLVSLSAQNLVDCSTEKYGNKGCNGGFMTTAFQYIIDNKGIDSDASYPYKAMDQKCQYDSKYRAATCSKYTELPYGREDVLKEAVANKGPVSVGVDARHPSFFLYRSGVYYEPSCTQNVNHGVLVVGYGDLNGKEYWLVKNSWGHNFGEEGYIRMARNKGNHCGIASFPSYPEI

Broadly, the IC50 is the concentration that inhibits the measured activity by half. Usually melting point stands for the temperature, or range, at which the solid turns liquid. `CC(=O)O[C@@H]1NC(=O)[C@@]1(C)NC(=O)[C@H](Cc1ccccc1)NC(=O)CCc1ccccc1` [Example 4, (3S,4S)-3-[2S-2-(3-phenylpropionyl)-amino-2-benzyl]-acetamido-3-methyl-4-acetoxy azetidine-2-one]: the melting point is 163 to 164 °C. Moreover, in data set [1], the IC50 was determined as 10000 nM. For the same molecule, the IC50 in data set [2] was determined as 1910 nM. For the same molecule, the IC50 in data set [3] stood at 1140 nM. Moreover, the half-maximal inhibitory concentration (IC50) in data set [4] amounted to 98 nM.
For the molecule `C[C@@]1(NC(=O)[C@H](CC2CCCCC2)NC(=O)CCCCCNC(=NC(=O)OCc2ccccc2)NC(=O)OCc2ccccc2)C(=O)N[C@H]1Oc1ccccc1` [Example 7, (3S,4S)-3-[2S-2-(6-N, N-dibenzyloxycarbonylguanidinohexanoyl)-amino-2-cyclohexylmethyl]-acetamido-3-methyl-4-phenoxy-azetidine-2-one], the IC50 was 26200 nM in data set [1], 32500 nM in data set [2], 32500 nM in data set [3] and 20 nM in data set [4].
Take `CC(C)(C)OC(=O)N[C@@H](Cc1cccnc1)C(=O)N[C@]1(C)C(=O)N[C@H]1Oc1ccccc1` [Example 12]: the melting point fell in the range of 109 to 110 °C. The IC50 in data set [1] was determined as 11300 nM. The half-maximal inhibitory concentration (IC50) in data set [2] came to 2270 nM. The IC50 in data set [3] is 7740 nM. The half-inhibitory concentration (IC50) in data set [4] was determined as 1800 nM.
On to `CC(C)(C)OC(=O)N[C@@H](Cc1cccnc1)C(=O)N[C@]1(C)C(=O)N[C@@H]1Oc1ccccc1` [Example 14], for which the half-maximal inhibitory concentration (IC50) amounted to 360 nM in data set [1], 450 nM in data set [2], 1340 nM in data set [3] and 50 nM in data set [4].
As to `C[C@@]1(NC(=O)[C@H](Cc2ccccc2)NC(=O)CCc2ccccc2)C(=O)N[C@H]1Oc1cccc(C(=O)OC(c2ccccc2)c2ccccc2)c1` [Example 18, (3S,4S)-3-[2S-2-(3-phenylpropionyl)-amino-2-benzyl]-acetamido-3-methyl-4-(3-diphenylmethoxycarbonyl)-phenoxy azetidine-2-one], the 50% inhibitory concentration (IC50) in data set [1] is > 36600 nM; in data set [2], 7330 nM; in data set [3] it was 7300 nM; in data set [4] it was 690 nM.
